Experiments:
CYP3A4 mRNA = assay: CYP3A4 Induction Assay (qPCR, human hepatocytes); format: in vitro ADME; conditions: cryopreserved human hepatocytes (plated), 10 μM compound, mRNA fold over vehicle (0.1% DMSO)
Experimental: (§1) CYP induction by compounds of the Examples was evaluated in vitro by determining the expression levels of CYP 3A4 mRNA using the qPCR (quantitative polymerase chain reaction) assay. On day one, cryopreserved human hepatocytes were thawed in prewarmed (37° C.) thawing medium (cryopreserved hepatocyte recovery medium, Gibco™ CM 7000; Thermo Fisher Scientific), centrifuged (1000 g for 10 minutes) and resuspended in plating medium (Gibco™ CM3000—Williams Medium E supplemented with hepatocytes plating supplement pak-serum containing; Thermo Fisher Scientific). Cells were counted by trypan blue exclusion using a hemocytometer and adjusted to a cell density of […]. Thereafter, […] of cell suspension was aliquoted per well in a 96-well plate, resulting in 60,000 cells/well. Plates were shaken in the north-south and east-west direction during plating. Plated cells were incubated at 37° C/5% CO2 in a humidified cell culture incubator for 4-6 hours. During this time, incubation medium (Gibco™ CM4000, cell maintenance supplement pack; Thermo Fisher Scientific) was mixed with Gibco™ Geltrex™ (Thermo Fischer Scientific) at the appropriate GeltrexTM protein concentration. Following recovery, medium was removed from cells and replaced with freshly prepared incubation medium. Cells were incubated overnight in a cell culture incubator (37° C./5% CO2).
(§2) The next day the incubation medium was prepared by combining the hepatocyte maintenance supplement pack with Williams Medium E. The medium was warmed to 37° C. 1000× dimethyl sulfoxide compound stocks of the compounds of the Examples were prepared to the desired concentrations. 10 mM compound stocks in dimethyl sulfoxide were diluted (1 μL to 1 mL CM4000; final concentration=10 μM). Overlay medium was aspirated and […] dose solution added to the desired labeled 96 well plate. Cells were then dosed with compound (10 μM) and prototypical induces at the targeted concentrations either 50 i.tM for omeprazole (Sigma 0104/lotBCBF-2161V) or 10 i.tM for rifampicin (Sigma R3501/lot 011M1159V). A negative control, probenecid, was dosed at 10 i.tM (Sigma P8761/lot 013K0148).
(§3) On day 3, RNA isolation was performed. All surfaces were cleaned using RNase RNAy. Total RNA was isolated using MagMAX Express 96 RNA Isolation System (Life Technologies, AM1830). Briefly, hepatocytes were washed once with 1X PBS (phosphate buffered saline). 145 μL of RNA Lysis Buffer was added to each well and each well was mixed by pipetting several times. Lysate was then transferred to a well of a 96 well Binding Plate. Samples were then mixed with 20 μL magnetic beads coming from the kit. RNA bound to beads was then captured by the magnetic tip manifold and beads were washed with the wash solution. Samples were treated with TURBOTmDNase. After TURBOTmDNase treatment, RNA was rebound to beads and washed with the provided wash buffer an additional two times. Beads are then dried, and RNA was eluted with 50 μL elution buffer. The eluted mRNA was transferred from the wells to RNase-free sealable microtiter plates and stored at -80° C. until use.
(§4) Following mRNA isolation, reverse transcription (RT) reactions were performed using TaqmanTm Reverse Transcription Reagents (ThermoFisher Scientific). RT master mix was prepared by mixing 2.5 μL 10× RT buffer, 5.5 μL 25 mM MgCl2, 5μL deoxyNTP mixture, 1.25 50 mM random hexamers, 0.5 μL 2× RNAse inhibitor, 0.625 μL multiscript RTase (50U/μL) and 0.625 μL water. An aliquot of RT mix (16 μL) and an aliquot of mRNA sample (9 μL) was added to each well of a 96-well plate. The SimpliAmpTM Thermal cycler PCR System VIIA7 from Applied Biosystems was used for reverse transcription under the following conditions: segment 1: 25° C. for 10 minutes; segment 2: 45° C. for 45 minutes; segment 3: 95° C. for 5 minutes; and segment 4: 4° C. hold; with 1 cycle for each segment. […]

CYP 3A4 mRNA = assay: CYP3A4 Induction Assay (qPCR, human hepatocytes); format: in vitro ADME; conditions: 10 μM compound, relative to rifampicin 10 μM
Experimental: as §1, §2, §3, §4

human MALT-1 protein = human MALT-1 protein (Homo sapiens (Human), UniProt Q9UDY8); assay: MALT-1 Biochemical Assay (Quench-FRET enzyme assay); conditions: human MALT-1 6 nM, substrate 2 μM, 40 min preincubation
Sequence of human MALT-1 protein (Q9UDY8 whole entry): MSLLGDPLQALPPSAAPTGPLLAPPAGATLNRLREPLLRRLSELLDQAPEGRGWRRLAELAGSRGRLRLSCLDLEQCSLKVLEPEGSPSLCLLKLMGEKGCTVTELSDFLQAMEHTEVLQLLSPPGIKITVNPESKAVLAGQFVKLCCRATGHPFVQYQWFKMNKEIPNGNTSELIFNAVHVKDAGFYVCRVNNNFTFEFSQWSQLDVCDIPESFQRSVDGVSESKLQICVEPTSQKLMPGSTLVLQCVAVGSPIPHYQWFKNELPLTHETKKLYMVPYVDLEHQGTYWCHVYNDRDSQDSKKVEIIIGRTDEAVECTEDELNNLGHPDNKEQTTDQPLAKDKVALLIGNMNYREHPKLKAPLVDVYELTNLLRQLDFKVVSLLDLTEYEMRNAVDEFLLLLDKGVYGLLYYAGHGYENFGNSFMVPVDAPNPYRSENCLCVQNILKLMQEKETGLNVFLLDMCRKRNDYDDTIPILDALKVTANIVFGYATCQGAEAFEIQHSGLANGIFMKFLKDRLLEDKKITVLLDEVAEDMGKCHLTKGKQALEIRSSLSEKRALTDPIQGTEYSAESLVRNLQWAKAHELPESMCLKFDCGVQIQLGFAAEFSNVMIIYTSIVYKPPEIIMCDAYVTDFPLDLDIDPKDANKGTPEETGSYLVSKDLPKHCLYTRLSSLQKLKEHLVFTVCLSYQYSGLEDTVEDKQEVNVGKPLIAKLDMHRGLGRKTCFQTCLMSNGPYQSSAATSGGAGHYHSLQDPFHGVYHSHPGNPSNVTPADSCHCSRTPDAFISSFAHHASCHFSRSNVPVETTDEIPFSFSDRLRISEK
Source text: A Quenched Fluorescence Resonance Energy Transfer (Quench-FRET) enzyme assay was used to test the ability of exemplary MALT-1 inhibitors Example 1 to Example 39 to inhibit the cleavage of a MALT1 specific quenched fluorescent substrate of sequence [TAMRA-PEG2-Leu-Val-Ser-Arg-Gly-Ala-Ala-Ser-PEG2-K(QSY7) by human MALT-1 protein; where TAMRA is 6-carboxytetramethylrhodamine, PEG2 is 2-(2-(2-aminoethoxy)ethoxyamide linker, QSY7 is a non-fluorescent quenching dye (Thermo-Fisher catalog #Q10193). The assay was performed by pre-dispensing compounds into 384 well Proxiplates™ (PE 6008289). Human MALT-1 (6 nM) was prepared using the assay buffer (25 mM HEPES pH 7.5, 1 mM ethylenediaminetetraacetic acid, 0.8 M sodium citrate, 0.005% Bovine serum albumin (BSA), 2 mM dithiothreitol (DTT)) and added to the compound plates. The plates were incubated 40 minutes at room temperature. The reaction was carried out by adding the substrate (2 μM) to the plates and incubating for 60 minutes at room temperature. A fluorescence readout was then measured using a PE EnVision® reader (Ex.535/Em.590). […] EC50 is defined as the half maximal effective concentration of compound to inhibit MALT-1 protease activity.

OCI-LY3 IL6 = assay: MALT-1 Cell IL-6 AlphaLISA Assay; format: cell-based; conditions: Homo sapiens; OCI-LY3 cells, 48 hours incubation; read-out: OCI-LY3 IL6 48 hour Inhibition EC50
Experimental: The following MALT-1 Cell Interleukin-6 (IL-6) AlphaLISA assay was conducted using a Perkin Elmer® IL-6 AlphaLISA® detection kit (PE AL223). The IL-6 detection assay is a homogeneous immunoassay that detects human IL-6 present in the cell culture medium in the MALT-1 dependent human ABC-DLBCL cell line, OCI-LY3. Compounds were pre-dispensed into Black 384w microtiter plates (Greiner, 781090) from 30 μM to 1.5 nM. Viable OCI-LY3 cells were then seeded on top of compounds at a seeding density of 50,000 cells/mL. Plates were then placed into 37° C. incubators for 48 hours. After 48 hours incubation, 2 μL of cell medium from each well was transferred into white ProxiPlates™ (PE 6008289). A fresh mix of AlphaLISA Acceptor beads (10 μg/mL) and Biotinylated IL-6 Antibody (1 nM) was made in AlphaLISA Immunoassay buffer and added to all wells (4 μL). The plates were incubated for 60 minutes at room temperature. Streptavidin donor beads (40 μg/mL) were prepared using the assay buffer and added to all wells (5 The plates were incubated for 30 minutes at room temperature and read using PE EnVision® reader. Results are shown in Table 3.

fold induction at 1 day, 10 µM (CYP3A4 mRNA) | CYP3A4 % of positive control (%) (CYP 3A4 mRNA) | EC50 (human MALT-1 protein) [nM] | EC50 (OCI-LY3 IL6) [nM] | Compound
1.9 | (14.4) % | 48 | 270 | CO[C@H](c1c(Nc2ccc([C@@H](C(F)F)N(C)C(=O)C3CCN(C(=O)CO)CC3)cc2)cnc2sc(C)nc12)C(F)(F)F [Example 36, N-{(1S)-2,2-difluoro-1-[4-({2-methyl-7-[(1R)-2,2,2-trifluoro-1-methoxyethyl][1,3]thiazolo [5,4-b]pyridin-6-yl}amino)phenyl]ethyl}-1-(hydroxyacetyl)-N-methylpiperidine-4-carboxamide]
2.11 | (13) % | 112 | 190 | CO[C@H](C)c1c(Nc2ccc([C@H](N(C)C(=O)C3CCN(C(=O)CO)CC3)C(F)(F)F)cc2)cnc2sc(C)nc12 [Example 34, 1-(hydroxyacetyl)-N-methyl-N-1{(1S)-2,2,2-trifluoro-1-[4-({7-[(1R)-1-methoxyethyl]-2-methyl[1,3]thiazolo[5,4-b]pyridin-6-yl}amino)phenyl]ethyl}piperidine-4-carboxamide]
1.17 | (2.57) % | 393 | 1150 | CO[C@@H](C)c1c(Nc2ccc([C@H](N(C)C(=O)C3CCN(C(=O)[C@H](C)O)CC3)C(F)(F)F)cc2)cnc2sc(C)nc12 [Example 26, 1-[(2S)-2-hydroxypropanoyl]-N-methyl-N-{(1S)-2,2,2-trifluoro-1-[4-({7-[(1S)-1-methoxyethyl]-2-methyl[1,3]thiazolo [5,4-b]pyridin-6-yl}amino)phenyl]ethyl}piperidine-4-c arboxamide]
1.38 | (4.08) % | 120 | 180 | CO[C@@H](C)c1c(Nc2ccc([C@H](N(C)C(=O)C3CCN(C(=O)CO)CC3)C(F)(F)F)cc2)cnc2sc(C)nc12 [Example 20, 1-(hydroxyacetyl)-N-methyl-N-{(1S)-2,2,2-trifluoro-1-[4-({7-[(1S)-1-methoxyethyl]-2-methyl[1,3]thiazolo [5,4-b]pyridin-6-yl}amino)phenyl]ethyl}piperidine-4-carboxamide]
1.2 | (2.56) % | 113 | 250 | CO[C@@H](c1c(Nc2ccc([C@H](N(C)C(=O)C3CCN(C(=O)CO)CC3)C(F)(F)F)cc2)cnc2sc(C)nc12)C(F)F [Example 32, N-{(1S)-1-[4({7-[(1S)-2,2-difluoro-1-methoxyethyl]-2-methyl[1,3]thiazolo [5,4-b]pyridin-6-yl}amino)phenyl]-2,2,2-trifluoroethyl}-1-(hydroxyacetyl)-N-methylpiperidine-4-carboxamide]
1.16 | (2.45) % | 67 | 250 | CO[C@@H](C)c1c(Nc2ccc([C@H](N(C)C(=O)C3CCN(C(=O)[C@@H](C)O)CC3)C(F)(F)F)cc2)cnc2sc(C)nc12 [Example 25, 1-[(2R)-2-hydroxypropanoyl]-N-methyl-N-{(1S)-2,2,2-trifluoro-1-[4-({7-[(1S)-1-methoxyethyl]-2-methyl[1,3]thiazolo [5,4-b]pyridin-6-yl}amino)phenyl]ethyl}piperidine-4-c arboxamide]
1.98 | (16.1) % | 158 | 1330 | CO[C@@H](C)c1c(Nc2ccc([C@@H](C(F)F)N(C)C(=O)C3CCS(=O)(=O)CC3)cc2)cnc2sc(C)nc12 [Example 4, N-{(1S)-2,2-difluoro-1-[4-({7-[(1S)-1-methoxyethyl]-2-methyl[1,3]thiazolo[5,4-b]pyridin-6-y1}amino)phenyl]ethyl} -N-methyl-1,1-dioxo-1λ^6-thiane-4-carboxamide]
3.19 | (34.8) % | 193 | 420 | CO[C@@H](c1c(Nc2ccc([C@@H](C(F)F)N(C)C(=O)C3CCS(=O)(=O)CC3)cc2)cnc2sc(C)nc12)C(F)F [Example 13, N-{(1S)-1-[4-({7-[(1S)-2,2-difluoro-1-methoxyethyl]-2-methyl[1,3]thiazolo[5,4-b]pyridin-6-yl}amino)phenyl]-2,2-difluoroethyl}-N-methyl-1,1-dioxo-1λ^6-thiane-4-carboxamide]
2.59 | (20) % | 155 | 390 | CO[C@@H](c1c(Nc2ccc([C@H](N(C)C(=O)C3CCS(=O)(=O)CC3)C(F)(F)F)cc2)cnc2sc(C)nc12)C(F)(F)F [Example 11, N-methyl-1,1-dioxo-N-{(1S)-2,2,2-trifluoro-1-[4-({2-methyl-7-[(1S)-2,2,2-trifluoro-1-methoxyethyl][1,3]thiazolo[5,4-b]pyridin-6-yl}amino)phenyl]ethyl}-1λ^6-thiane-4-carboxamide]
2.71 | (27.3) % | 97 | 200 | CO[C@H](c1c(Nc2ccc([C@@H](C(F)F)N(C)C(=O)C3CCS(=O)(=O)CC3)cc2)cnc2sc(C)nc12)C(F)(F)F [Example 14, N-{(1S)-2,2-difluoro-1-[4-({2-methyl-7-[(1R)-2,2,2-trifluoro-1-methoxyethyl][1,3]thiazolo[5,4-b]pyridin-6-yl}amino)phenyl]ethyl}-N-methyl-1,1-dioxo-1λ^6-thiane-4-carboxamide]

Reference: patent US20230312601A1, “THIAZOLO[5,4-B]PYRIDINE MALT-1 INHIBITORS” (AbbVie Inc., priority 2022, published 2023)
